Like-named read-outs stand apart in the source and are kept apart here.
How the values were obtained:
Test in all cases: Kinase selectivity, scanMAX Kinase assay panel (DiscoverX), % control at 1 uM
Assay type in all cases: binding
[1] = target: T1, scanMAX Kinase assay panel (Homo sapiens, UniProt O75747); conditions: PIK3C2G; 1 uM; read-out: Percent Control (%)
T1 construct: purchased DiscoverX
T1 sequence (O75747 1-1486): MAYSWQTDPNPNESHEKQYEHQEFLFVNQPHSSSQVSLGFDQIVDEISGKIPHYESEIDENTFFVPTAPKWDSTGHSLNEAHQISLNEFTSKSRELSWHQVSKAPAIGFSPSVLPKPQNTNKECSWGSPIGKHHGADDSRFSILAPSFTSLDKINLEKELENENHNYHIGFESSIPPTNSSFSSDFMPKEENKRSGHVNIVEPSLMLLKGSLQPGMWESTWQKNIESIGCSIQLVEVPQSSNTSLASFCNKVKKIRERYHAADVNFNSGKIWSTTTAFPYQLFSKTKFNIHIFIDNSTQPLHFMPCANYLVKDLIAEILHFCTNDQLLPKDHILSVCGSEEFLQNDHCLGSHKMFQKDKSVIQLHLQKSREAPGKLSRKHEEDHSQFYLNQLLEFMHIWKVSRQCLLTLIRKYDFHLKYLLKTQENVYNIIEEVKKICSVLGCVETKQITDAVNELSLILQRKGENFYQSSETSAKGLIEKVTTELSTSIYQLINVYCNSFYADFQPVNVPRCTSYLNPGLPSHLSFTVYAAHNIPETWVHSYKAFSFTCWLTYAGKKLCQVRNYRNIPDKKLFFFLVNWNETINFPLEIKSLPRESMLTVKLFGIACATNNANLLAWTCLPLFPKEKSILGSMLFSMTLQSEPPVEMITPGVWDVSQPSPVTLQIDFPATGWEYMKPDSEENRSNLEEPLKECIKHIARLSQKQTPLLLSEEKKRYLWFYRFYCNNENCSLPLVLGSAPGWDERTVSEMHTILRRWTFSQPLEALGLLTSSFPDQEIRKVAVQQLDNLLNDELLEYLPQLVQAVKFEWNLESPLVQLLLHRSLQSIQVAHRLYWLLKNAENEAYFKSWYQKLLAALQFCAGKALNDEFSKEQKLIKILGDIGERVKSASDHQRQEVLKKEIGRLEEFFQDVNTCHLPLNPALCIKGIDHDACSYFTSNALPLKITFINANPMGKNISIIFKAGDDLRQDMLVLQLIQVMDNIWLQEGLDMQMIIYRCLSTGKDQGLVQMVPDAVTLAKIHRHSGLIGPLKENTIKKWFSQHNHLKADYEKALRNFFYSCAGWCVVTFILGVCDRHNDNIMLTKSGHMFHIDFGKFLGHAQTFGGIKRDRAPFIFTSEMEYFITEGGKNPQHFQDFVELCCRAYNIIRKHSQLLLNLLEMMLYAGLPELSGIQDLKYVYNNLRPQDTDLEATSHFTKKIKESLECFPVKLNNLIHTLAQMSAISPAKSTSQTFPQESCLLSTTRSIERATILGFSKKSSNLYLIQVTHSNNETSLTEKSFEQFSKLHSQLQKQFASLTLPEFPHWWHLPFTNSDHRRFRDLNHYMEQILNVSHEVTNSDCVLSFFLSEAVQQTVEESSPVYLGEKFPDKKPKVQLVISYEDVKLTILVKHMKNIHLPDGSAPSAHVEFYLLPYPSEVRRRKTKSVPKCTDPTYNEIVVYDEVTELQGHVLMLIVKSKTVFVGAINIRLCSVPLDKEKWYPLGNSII
Summary of the method: (§1)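 Activity was called for kinases showing % control under 35, calculated from compound signal relative to positive and negative controls. Each compound screened at 1 uM against the DiscoverX scanMAX panel.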

[2] = target: T2, scanMAX Kinase assay panel (Homo sapiens, UniProt P00519); conditions: 1 uM, read-out: Percent Control (%)
T2 construct: purchased DiscoverX
Summary of the method: as §1

[3] = target: T3, scanMAX Kinase assay panel (Homo sapiens, UniProt P09769); conditions: FGR; 1 uM; read-out: Percent Control (%)
T3 construct: purchased DiscoverX
Summary of the method: as §1

[4] = target: T4, scanMAX Kinase assay panel (Homo sapiens, UniProt P24723); conditions: PRKCH; 1 uM; read-out: Percent Control (%)
T4 construct: purchased DiscoverX
Summary of the method: as §1

[5] = target: T5, scanMAX Kinase assay panel (Homo sapiens, UniProt Q04759); conditions: PRKCQ; 1 uM; read-out: Percent Control (%)
T5 construct: purchased DiscoverX
Summary of the method: as §1

[6] = target: T6, scanMAX Kinase assay panel (Homo sapiens, UniProt Q13882); conditions: BRK; 1 uM; read-out: Percent Control (%)
T6 construct: purchased DiscoverX
Summary of the method: as §1

[7] = target: T7, scanMAX Kinase assay panel (Homo sapiens, UniProt Q8NG66); conditions: NEK11; 1 uM; read-out: Percent Control (%)
T7 construct: purchased DiscoverX
T7 sequence (Q8NG66 1-645): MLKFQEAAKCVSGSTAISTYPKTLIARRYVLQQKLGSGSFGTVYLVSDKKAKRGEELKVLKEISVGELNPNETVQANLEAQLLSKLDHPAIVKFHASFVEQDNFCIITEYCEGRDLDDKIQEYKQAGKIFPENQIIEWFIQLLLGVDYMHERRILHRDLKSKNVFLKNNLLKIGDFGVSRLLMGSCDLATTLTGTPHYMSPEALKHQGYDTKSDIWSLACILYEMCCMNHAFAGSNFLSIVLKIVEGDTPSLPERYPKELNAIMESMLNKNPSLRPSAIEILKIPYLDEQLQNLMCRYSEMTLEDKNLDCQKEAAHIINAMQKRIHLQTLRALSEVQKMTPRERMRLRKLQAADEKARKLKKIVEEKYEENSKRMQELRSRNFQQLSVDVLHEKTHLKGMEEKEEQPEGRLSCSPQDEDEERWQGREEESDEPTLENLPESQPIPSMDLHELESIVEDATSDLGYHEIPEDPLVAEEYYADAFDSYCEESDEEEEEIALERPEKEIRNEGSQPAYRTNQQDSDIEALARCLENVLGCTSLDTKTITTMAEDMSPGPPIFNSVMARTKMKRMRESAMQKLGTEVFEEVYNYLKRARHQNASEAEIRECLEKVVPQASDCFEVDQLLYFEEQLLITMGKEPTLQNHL
Summary of the method: as §1

[8] = target: T8, scanMAX Kinase assay panel (Homo sapiens, UniProt Q96J92); conditions: WNK4; 1 uM; read-out: Percent Control (%)
T8 construct: purchased DiscoverX
Summary of the method: as §1

T3 sequence (P09769 whole entry): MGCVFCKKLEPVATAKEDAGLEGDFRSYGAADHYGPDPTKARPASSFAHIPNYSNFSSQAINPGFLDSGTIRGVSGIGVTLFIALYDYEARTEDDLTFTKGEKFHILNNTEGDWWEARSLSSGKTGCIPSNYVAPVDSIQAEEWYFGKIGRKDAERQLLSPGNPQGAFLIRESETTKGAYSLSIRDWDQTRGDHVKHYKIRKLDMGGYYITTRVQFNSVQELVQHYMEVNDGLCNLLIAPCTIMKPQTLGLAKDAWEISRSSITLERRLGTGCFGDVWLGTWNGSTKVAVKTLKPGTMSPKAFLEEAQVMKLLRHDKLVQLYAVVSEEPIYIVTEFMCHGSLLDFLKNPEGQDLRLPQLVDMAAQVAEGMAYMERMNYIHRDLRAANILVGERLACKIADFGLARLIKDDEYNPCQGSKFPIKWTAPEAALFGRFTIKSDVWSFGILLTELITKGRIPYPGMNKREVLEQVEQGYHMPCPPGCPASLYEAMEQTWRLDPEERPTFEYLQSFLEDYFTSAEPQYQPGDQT
T8 sequence (Q96J92 whole entry): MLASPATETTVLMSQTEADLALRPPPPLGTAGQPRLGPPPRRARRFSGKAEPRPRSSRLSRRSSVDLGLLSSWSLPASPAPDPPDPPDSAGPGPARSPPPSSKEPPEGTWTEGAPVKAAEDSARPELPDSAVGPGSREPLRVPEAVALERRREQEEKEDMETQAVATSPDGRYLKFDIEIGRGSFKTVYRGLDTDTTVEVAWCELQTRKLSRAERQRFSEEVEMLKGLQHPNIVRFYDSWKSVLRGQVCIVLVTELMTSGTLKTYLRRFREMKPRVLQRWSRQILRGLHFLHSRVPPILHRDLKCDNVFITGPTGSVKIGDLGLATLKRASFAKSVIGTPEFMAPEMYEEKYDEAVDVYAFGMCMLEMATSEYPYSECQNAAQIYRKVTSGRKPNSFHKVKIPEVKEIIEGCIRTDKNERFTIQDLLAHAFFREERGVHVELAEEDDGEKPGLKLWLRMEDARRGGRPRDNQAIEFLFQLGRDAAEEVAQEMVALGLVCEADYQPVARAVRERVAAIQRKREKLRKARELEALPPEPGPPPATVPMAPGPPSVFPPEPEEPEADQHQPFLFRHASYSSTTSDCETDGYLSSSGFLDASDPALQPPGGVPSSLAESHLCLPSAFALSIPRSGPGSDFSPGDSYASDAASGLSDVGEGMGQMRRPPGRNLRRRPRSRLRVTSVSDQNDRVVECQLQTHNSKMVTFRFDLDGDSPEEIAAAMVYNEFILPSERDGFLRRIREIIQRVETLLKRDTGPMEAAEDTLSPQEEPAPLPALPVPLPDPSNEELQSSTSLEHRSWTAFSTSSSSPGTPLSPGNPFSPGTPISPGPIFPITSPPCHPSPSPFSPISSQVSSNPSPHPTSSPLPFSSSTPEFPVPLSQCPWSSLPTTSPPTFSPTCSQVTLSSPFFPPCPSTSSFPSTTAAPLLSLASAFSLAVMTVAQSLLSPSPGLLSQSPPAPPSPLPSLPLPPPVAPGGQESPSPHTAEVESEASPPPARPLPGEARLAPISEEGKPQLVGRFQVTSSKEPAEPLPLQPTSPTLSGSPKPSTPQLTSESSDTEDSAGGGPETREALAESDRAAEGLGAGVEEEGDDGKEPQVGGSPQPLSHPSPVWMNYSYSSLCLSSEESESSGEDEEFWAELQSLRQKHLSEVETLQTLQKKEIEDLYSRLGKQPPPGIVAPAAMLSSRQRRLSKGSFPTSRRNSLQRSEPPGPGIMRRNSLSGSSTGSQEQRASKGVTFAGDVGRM
T6 sequence (Q13882 whole entry): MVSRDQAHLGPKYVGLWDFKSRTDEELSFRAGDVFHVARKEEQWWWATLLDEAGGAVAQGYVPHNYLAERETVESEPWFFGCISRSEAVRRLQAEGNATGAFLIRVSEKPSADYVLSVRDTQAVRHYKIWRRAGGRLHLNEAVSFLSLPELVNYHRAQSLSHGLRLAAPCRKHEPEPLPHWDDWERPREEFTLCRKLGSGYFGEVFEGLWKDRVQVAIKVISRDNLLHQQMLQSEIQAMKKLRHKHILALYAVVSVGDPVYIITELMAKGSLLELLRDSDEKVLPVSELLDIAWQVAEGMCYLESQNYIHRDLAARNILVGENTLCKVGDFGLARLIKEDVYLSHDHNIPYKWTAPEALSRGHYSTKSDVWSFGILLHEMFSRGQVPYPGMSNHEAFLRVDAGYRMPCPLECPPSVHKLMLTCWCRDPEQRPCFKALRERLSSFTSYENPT
T2 sequence (P00519 whole entry): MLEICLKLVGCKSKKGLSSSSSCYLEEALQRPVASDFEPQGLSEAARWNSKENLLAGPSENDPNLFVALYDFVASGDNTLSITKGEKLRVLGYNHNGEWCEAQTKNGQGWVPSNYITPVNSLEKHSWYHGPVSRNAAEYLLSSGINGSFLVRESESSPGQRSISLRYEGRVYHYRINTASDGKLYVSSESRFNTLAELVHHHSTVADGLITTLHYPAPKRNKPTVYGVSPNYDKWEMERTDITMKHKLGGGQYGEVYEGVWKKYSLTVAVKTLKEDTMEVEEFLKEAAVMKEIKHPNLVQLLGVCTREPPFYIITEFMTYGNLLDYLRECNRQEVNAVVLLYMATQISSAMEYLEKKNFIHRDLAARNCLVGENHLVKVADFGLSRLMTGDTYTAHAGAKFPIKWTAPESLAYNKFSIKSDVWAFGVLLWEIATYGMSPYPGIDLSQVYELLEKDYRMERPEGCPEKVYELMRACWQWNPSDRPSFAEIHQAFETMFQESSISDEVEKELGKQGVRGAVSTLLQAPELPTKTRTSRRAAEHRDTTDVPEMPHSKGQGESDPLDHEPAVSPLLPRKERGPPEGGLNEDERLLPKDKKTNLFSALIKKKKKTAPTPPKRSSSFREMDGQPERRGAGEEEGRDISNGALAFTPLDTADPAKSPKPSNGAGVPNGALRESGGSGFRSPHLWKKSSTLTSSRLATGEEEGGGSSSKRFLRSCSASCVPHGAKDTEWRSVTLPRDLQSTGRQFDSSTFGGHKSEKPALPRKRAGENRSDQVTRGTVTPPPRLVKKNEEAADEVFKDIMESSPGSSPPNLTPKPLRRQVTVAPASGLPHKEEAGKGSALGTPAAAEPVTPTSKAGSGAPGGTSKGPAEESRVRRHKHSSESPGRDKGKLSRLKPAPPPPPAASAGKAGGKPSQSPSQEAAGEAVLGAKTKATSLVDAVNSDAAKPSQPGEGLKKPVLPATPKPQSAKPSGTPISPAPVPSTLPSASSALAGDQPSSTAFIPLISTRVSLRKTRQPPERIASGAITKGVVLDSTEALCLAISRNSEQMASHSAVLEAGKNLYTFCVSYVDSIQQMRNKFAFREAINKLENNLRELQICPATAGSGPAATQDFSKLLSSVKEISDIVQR
T4 sequence (P24723 whole entry): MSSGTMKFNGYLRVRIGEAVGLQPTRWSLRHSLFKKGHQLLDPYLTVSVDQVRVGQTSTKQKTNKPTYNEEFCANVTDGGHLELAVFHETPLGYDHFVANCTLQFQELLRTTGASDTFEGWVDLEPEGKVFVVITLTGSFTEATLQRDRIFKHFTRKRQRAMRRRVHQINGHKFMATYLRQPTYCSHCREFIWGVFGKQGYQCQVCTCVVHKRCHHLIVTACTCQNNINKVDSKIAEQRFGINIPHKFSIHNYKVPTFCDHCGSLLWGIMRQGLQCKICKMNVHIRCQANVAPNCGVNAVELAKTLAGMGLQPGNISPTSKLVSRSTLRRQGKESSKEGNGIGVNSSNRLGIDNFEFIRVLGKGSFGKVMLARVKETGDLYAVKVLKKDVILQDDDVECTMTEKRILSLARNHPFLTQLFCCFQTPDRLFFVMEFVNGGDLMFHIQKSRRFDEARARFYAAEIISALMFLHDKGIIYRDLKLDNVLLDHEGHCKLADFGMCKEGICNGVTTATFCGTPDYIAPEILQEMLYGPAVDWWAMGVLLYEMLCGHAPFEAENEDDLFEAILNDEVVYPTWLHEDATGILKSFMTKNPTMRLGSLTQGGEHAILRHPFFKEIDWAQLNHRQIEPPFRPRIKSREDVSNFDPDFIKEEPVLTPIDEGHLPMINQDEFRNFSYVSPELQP
T5 sequence (Q04759 whole entry): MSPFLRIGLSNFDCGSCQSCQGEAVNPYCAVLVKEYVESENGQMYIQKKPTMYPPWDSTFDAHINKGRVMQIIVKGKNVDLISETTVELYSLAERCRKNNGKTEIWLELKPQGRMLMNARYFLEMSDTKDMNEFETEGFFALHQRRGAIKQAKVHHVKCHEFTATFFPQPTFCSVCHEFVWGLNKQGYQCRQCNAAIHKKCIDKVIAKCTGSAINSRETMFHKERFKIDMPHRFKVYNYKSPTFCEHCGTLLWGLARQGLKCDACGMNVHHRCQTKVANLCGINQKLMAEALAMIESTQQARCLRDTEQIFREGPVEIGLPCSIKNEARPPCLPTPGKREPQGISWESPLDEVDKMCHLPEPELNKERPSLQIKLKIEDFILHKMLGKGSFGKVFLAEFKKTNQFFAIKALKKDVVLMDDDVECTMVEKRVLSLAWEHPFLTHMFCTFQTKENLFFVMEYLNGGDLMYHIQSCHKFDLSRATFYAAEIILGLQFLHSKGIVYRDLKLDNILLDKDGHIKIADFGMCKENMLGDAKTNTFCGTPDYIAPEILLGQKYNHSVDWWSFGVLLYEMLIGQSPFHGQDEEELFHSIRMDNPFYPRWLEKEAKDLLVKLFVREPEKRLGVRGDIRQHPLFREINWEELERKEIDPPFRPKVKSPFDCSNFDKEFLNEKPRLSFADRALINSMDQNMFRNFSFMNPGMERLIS

Question: What does the source list for `Cc1ccc(C(=O)Nc2ccc(CN3CCN(C)CC3)c(C(F)(F)F)c2)cc1C#Cc1cnc2c(Nc3cnn(C)c3)cccn12` [Example 1, 4-methyl-3-((8-((1-methyl-1H-pyrazol-4-yl)amino)imidazo[1,2-a]pyridin-3-yl)ethynyl)-N-(4-((4-methylpiperazin-1-yl)methyl)-3-(trifluoromethyl)phenyl)benzamide]?
Answer: remaining binding at 1 µM [1]: 75%; remaining binding at 1 µM ([2]; ABL1-nonphosphorylated): 1%; remaining binding at 1 µM ([2]; ABL1-phosphorylated): 0%; remaining binding at 1 µM [3]: 0%; remaining binding at 1 µM [4]: 100%; remaining binding at 1 µM [5]: 53%; remaining binding at 1 µM [6]: 23%; remaining binding at 1 µM [7]: 13%; remaining binding at 1 µM [8]: 96%

Question: Which results are given for `Cc1cn(-c2cc(NC(=O)c3ccc(C)c(C#Cc4cnc5c(Nc6cnn(C)c6)cccn45)c3)cc(C(F)(F)F)c2)cn1` [Example 12, 4-methyl-N-(3-(4-methyl-1H-imidazol-1-yl)-5-(trifluoromethyl)phenyl)-3-((8-((1-methyl-1H-pyrazol-4-yl)amino)imidazo[1,2-a]pyridin-3-yl)ethynyl)benzamide]?
Answer: remaining binding at 1 µM [1]: 100%; remaining binding at 1 µM ([2]; ABL1-nonphosphorylated): 1%; remaining binding at 1 µM ([2]; ABL1-phosphorylated): 6%; remaining binding at 1 µM [3]: 4%; remaining binding at 1 µM [4]: 100%; remaining binding at 1 µM [5]: 87%; remaining binding at 1 µM [6]: 68%; remaining binding at 1 µM [7]: 100%; remaining binding at 1 µM [8]: 100%

Question: With `Cc1ccc(NC(=O)C2(C(=O)Nc3ccc(F)cc3)CC2)cc1C#Cc1cnc2c(Nc3cnn(C(C)C)c3)cccn12` [Example 78] as the compound, how does the remaining binding at 1 µM [1] read?
Answer: 100%

Question: What about the remaining binding at 1 µM ([2]; ABL1-nonphosphorylated) of the same compound?
Answer: 4%

Question: What about the remaining binding at 1 µM ([2]; ABL1-phosphorylated) of the same compound?
Answer: 56%

Question: And the remaining binding at 1 µM [3]?
Answer: 80%

Question: What about the remaining binding at 1 µM [4] of the same compound?
Answer: 100%

Question: And the remaining binding at 1 µM [5]?
Answer: 85%

Question: And the remaining binding at 1 µM [6]?
Answer: 99%

Question: What about the remaining binding at 1 µM [7] of the same compound?
Answer: 100%

Question: What about the remaining binding at 1 µM [8] of the same compound?
Answer: 100%

Reference: US10870647B2, “Imidazopyridine derivative, method for preparing same, and pharmaceutical composition containing same as active ingredient for preventing or treating cancer” (DAEGU-GYEONGBUK MEDICAL INNOVATION FOUNDATION, priority 2016, dated 2020)
